Reference: ChEMBL document CHEMBL1201862, “PubChem BioAssay data set” (2004)
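In this assay, cells in 96-well plates receive the compound at five concentrations for 48 hours. Endpoints are linearly interpolated between the surrounding concentrations. GI50: concentration for 50% inhibition of growth.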 Activity calls are given as the source filed them. Rule as the data show it: active = GI50 up to about 1.1 µM and inactive = higher.

Experiments:
Assay in all cases: NCI-60 cell line screen, 48 h
A498 = test system: A498
HOP-62 = test system: HOP-62
EKVX = test system: EKVX
SNB-19 = test system: SNB-19
HCT-116 = test system: HCT-116
OVCAR-3 = test system: OVCAR-3
HCC 2998 = test system: HCC 2998
CCRF-CEM = test system: CCRF-CEM
NCI-H522 = test system: NCI-H522
UACC-257 = test system: UACC-257
HL-60 = test system: HL-60
SF-268 = test system: SF-268
NCI/ADR-RES = test system: NCI/ADR-RES
786-0 = test system: 786-0
MOLT-4 = test system: MOLT-4
RPMI-8226 = test system: RPMI-8226
DU-145 = test system: DU-145
SR = test system: SR
HOP-92 = test system: HOP-92

Measured: GI50

CS(=O)(=O)c1nc(-c2cc3c(c(S(C)(=O)=O)n2)CCC3)cc2c1CCC2
inactive: A498 > 100 µM | HOP-62 > 100 µM | EKVX > 100 µM | SNB-19 67.5 µM | HCT-116 > 100 µM | OVCAR-3 > 100 µM | HCC 2998 > 100 µM | CCRF-CEM > 100 µM | NCI-H522 > 100 µM | UACC-257 > 100 µM | HL-60 > 100 µM | SF-268 44.3 µM | NCI/ADR-RES > 100 µM | 786-0 82.6 µM | MOLT-4 > 100 µM | RPMI-8226 > 100 µM | DU-145 > 100 µM

Cn1c(=O)cc(N2CCCC2)[nH]c1=O
inactive: SR > 100 µM | HOP-62 > 100 µM | EKVX > 100 µM | SNB-19 > 100 µM | HCT-116 > 100 µM | HOP-92 > 100 µM | HCC 2998 > 100 µM | CCRF-CEM > 100 µM | NCI-H522 > 100 µM | UACC-257 > 100 µM | HL-60 > 100 µM | SF-268 74.1 µM | NCI/ADR-RES > 100 µM | 786-0 > 100 µM | MOLT-4 > 100 µM | RPMI-8226 > 100 µM | DU-145 > 100 µM

O=C(O)C1(c2ccccc2)CCCNCC1 (stereo not given)
inactive: SR > 100 µM | A498 > 100 µM | HOP-62 > 100 µM | EKVX > 100 µM | SNB-19 > 100 µM | HCT-116 > 100 µM | OVCAR-3 > 100 µM | HOP-92 > 100 µM | HCC 2998 > 100 µM | CCRF-CEM > 100 µM | NCI-H522 > 100 µM | UACC-257 > 100 µM | SF-268 > 100 µM | 786-0 > 100 µM | MOLT-4 > 100 µM | RPMI-8226 > 100 µM

CCC(C)[C@H](NC(=O)N[C@H](C)c1ccccc1)C(=O)OC (stereo not given in full)
inactive: SR > 100 µM | A498 > 100 µM | HOP-62 > 100 µM | EKVX > 100 µM | SNB-19 > 100 µM | HCT-116 > 100 µM | OVCAR-3 > 100 µM | HOP-92 > 100 µM | HCC 2998 > 100 µM | CCRF-CEM > 100 µM | UACC-257 > 100 µM | HL-60 > 100 µM | 786-0 > 100 µM | MOLT-4 > 100 µM | RPMI-8226 > 100 µM | DU-145 > 100 µM

OCn1nc2c(C3OCCO3)cc3ccccc3n2c1=S
inactive: SR > 100 µM | A498 > 100 µM | HOP-62 > 100 µM | EKVX > 100 µM | SNB-19 > 100 µM | HCT-116 > 100 µM | OVCAR-3 > 100 µM | HOP-92 > 100 µM | CCRF-CEM > 100 µM | NCI-H522 > 100 µM | UACC-257 > 100 µM | HL-60 > 100 µM | SF-268 > 100 µM | 786-0 > 100 µM | MOLT-4 > 100 µM | RPMI-8226 > 100 µM

COc1cc(C2(C)SCCCS2)c(I)c(OC)c1OC
inactive: SR > 100 µM | A498 > 100 µM | HOP-62 > 100 µM | EKVX > 100 µM | SNB-19 > 100 µM | HCT-116 > 100 µM | OVCAR-3 > 100 µM | HOP-92 > 100 µM | HCC 2998 > 100 µM | CCRF-CEM > 100 µM | NCI-H522 > 100 µM | UACC-257 > 100 µM | HL-60 > 100 µM | SF-268 > 100 µM | 786-0 > 100 µM | MOLT-4 > 100 µM | RPMI-8226 > 100 µM

CC(=O)OC1CC2C(C)(C)C(=O)C=C[C@]2(C)C2CCC3(C)C(c4ccoc4)C(=O)C4OC43[C@]12C (stereo not given in full)
inactive: SR 11.5 µM | A498 17.6 µM | HOP-62 27.8 µM | EKVX 40.5 µM | SNB-19 31.3 µM | HCT-116 13 µM | OVCAR-3 18.3 µM | HOP-92 15.8 µM | HCC 2998 16.7 µM | CCRF-CEM 20.8 µM | NCI-H522 12.9 µM | UACC-257 15.7 µM | HL-60 12.4 µM | SF-268 21.7 µM | 786-0 25.9 µM | MOLT-4 13.4 µM | RPMI-8226 2.77 µM

CCOC(=O)C1=C(O)C(=O)c2ccsc2C1=O
inactive: SR > 100 µM | A498 > 100 µM | HOP-62 > 100 µM | EKVX > 100 µM | SNB-19 > 100 µM | HCT-116 > 100 µM | OVCAR-3 > 100 µM | HOP-92 > 100 µM | HCC 2998 > 100 µM | CCRF-CEM > 100 µM | NCI-H522 69.3 µM | UACC-257 > 100 µM | HL-60 > 100 µM | SF-268 > 100 µM | 786-0 > 100 µM | MOLT-4 > 100 µM | RPMI-8226 > 100 µM

O=c1[nH]nc(Nc2ccc(Cl)cc2)c2nnn(-c3ccc([N+](=O)[O-])cc3)c12
inactive: SR 28.1 µM | HOP-62 27.4 µM | EKVX 30.6 µM | SNB-19 30.9 µM | HCT-116 13.9 µM | HOP-92 14.5 µM | HCC 2998 15.2 µM | CCRF-CEM 7.98 µM | NCI-H522 4.47 µM | UACC-257 34.8 µM | HL-60 98.6 µM | SF-268 24.3 µM | NCI/ADR-RES 23.1 µM | 786-0 17.1 µM | MOLT-4 8.63 µM | RPMI-8226 10.7 µM | DU-145 12.1 µM
